Data on 1 molecule can be found in article PMC8820799, “Angiogenesis and anti-leukaemia activity of novel indole derivatives as potent colchicine binding site inhibitors” (Journal of Enzyme Inhibition and Medicinal Chemistry, 2022).

The structures appear in SMILES notation. Converted amounts (≈) assume the structure as drawn. Where two headings read alike, the source gives them in different places. Where only a bound is given, the exact number is not on record here.

Data set [1] can be described thus: In vitro metabolic stability, mouse liver microsomes. Type of data set: in vitro ADME. To be noted: 0.4 mg/mL protein. On the procedure:
The metabolic stability assay was performed by incubating the test compound in mouse or human liver microsomes (XenoTech, lot no. 1510256) at 37 °C and a protein concentration of 0.4 mg/mL. Microsomal incubations were performed at a substrate concentration of 0.5 µM. Data analysis. Species scaling factors were used to convert the in vitro CLint(mL/min/mg) to an in vivo CLint(mL/min/kg).
In general terms: Liver microsomes are vesicles of endoplasmic reticulum, rich in cytochrome P450 enzymes.

The target in data set [2] is T1, tubulin colchicine binding site (Sus scrofa, UniProt P02550+P02554).
T1 construct: purchased Cytoskeleton, Inc
As to the kind of experiment: [3H]colchicine-tubulin binding assay. The following applies: compared with the positive control CA-4; Figure 4D. How it is done: One micromolar radiolabeled colchicine [ring C, Methoxy-3H] (Perkin-Elmer), 1% DMSO and various concentrations of test compounds in 50 µL G-PEM buffer containing 80 mmol/L PIPES (pH 6.8), 1 mmol/L EGTA, 1 mmol/L MgCl2 and 1 mmol/L GTP, and 5% glycerol were incu-bated with […] (> 99% pure; Cytoskeleton, Inc.; 0.2 mg/mL) at 37 °C for 60 min. The binding solutions were filtered through a stack of 2 DEAE-cellulose filters and washed twice. The radioactivity in the […] was determined by liquid scintillation spectrometry (Perkin-Elmer Wallac). Nonlinear regression was used to analyse the data using GraphPad Prism.

The test system of a further data set is CCRF-CEM. As to the kind of experiment: CCK-8 assay, CCRF-CEM. To be noted: Homo sapiens, leukaemia, ALL, CCK-8, 72 h. Type of data set: cell-based. How it is done:
(§1) Cells were seeded in 96-well plates at a density of 8 × 10^3 per well and exposed to different concentrations of compounds for 72 h. Subsequently, 10 µL CCK8 solution was added to each well and co-incubated for another 3–4 h at 37 °C. The absorbance was determined at 450 nm. Data was calculated with GraphPad Prism5 software.[32]

The test system of data set [3] is transgenic zebrafish (FLK-1:EGFP). In words: Zebrafish angiogenesis assay (ISVs). The class given is in vivo. To be noted: for IC50: transgenic zebrafish, triplicate, mean ± SD, read-out: Zebrafish (antiangiogenic activity IC50). How it is done: The transgenic flk: enhanced GFP zebrafish embryos were generated by pair-wise mating, collected and sorted into the 6-well plate (n = 30 per well) with 1 ml of aquaculture water (0.2 g/L of Instant Ocean Salt in distilled water) and raised at 28 °C. Then the embryos staged at 12 h post fertilisation (hpf) were treated with the indicated concentrations of compounds which were added into embryo water. About 30 embryos were screened for each concentration gradient. At 30hpf, the treated embryos were anaesthetised with 0.02% tricaine in embryo water and photographed. The numbers of ISVs were recorded under confocal microscopy. Results were obtained from three independent determinations and presented as mean ± SD.[38]

Another data set deals with MV4-11. As to the kind of experiment: CCK-8 assay, MV4-11. The class given is cell-based. The following applies: Homo sapiens, leukaemia, AML, CCK-8, 72 h. How it is done: as §1
On the technique in general: Formazan colour is commonly taken as a measure of viable cells.

Data set [4] in a line: Kinetic solubility by nephelometry. Type of data set: physicochemical. The following applies: kinetic from dmso stock, 1% DMSO. How it is done:
Calculated physicochemical parameters. Physicochemical properties were calculated using the ChemAxon chemistry cartridge via JChem for Excel software (version 16.4.11). Compound 29e in DMSO was spiked into either pH 6.5 phosphate buffer or 0.01 M HCl (approximately pH 2.0) with the final DMSO concentration being 1%. After 30 min had elapsed, samples were analysed via Nephelometry to determine a solubility range.

Another data set relates to K562 cells. In words: Western blot of apoptosis-related proteins. The class given is cell-based. To be noted: K562, 48 h. How it is done: Exponentially growing K562 cells in were seeded in […] at a density of 6х10^5/dish and incubated overnight. The cultured cells were treated with indicated concentrations of 29e for 48 h. After the cells were washed with cold PBS, the supernatant was removed. Cells were scraped off the tissue culture dish, and then lysed by 100 µl ice-cold RIPA lysis buffer for 20 min with occasional agitation. The supernatant was collected by centrifuging at 12,000 g for 10 min at 4 °C. The protein concentration in the supernatant was determined by using a BCA protein assay kit. After BCA analysis to quantify proteins, samples were prepared in SDS-PAGE loading buffer, then boiled for 10 min at 100 °C. Western blot analyses were conducted after separation by SDS-PAGE electrophoresis and transfer to nitrocellulose filter (NC) membranes. Immunoblotting was performed according to the antibody manufacturers’ recommendations. Antibodies: caspase-3, caspase-9, PARP and β-actin.
In general terms: Immunoblotting shows a protein as a band on a membrane.

A further data set concerns HuT 78. In words: CCK-8 assay, HuT 78. The following applies: Homo sapiens, HuT78; leukaemia, ALL; CCK-8, 72 h. The class given is cell-based. How it is done: as §1

T1 sequence (P02554 whole entry): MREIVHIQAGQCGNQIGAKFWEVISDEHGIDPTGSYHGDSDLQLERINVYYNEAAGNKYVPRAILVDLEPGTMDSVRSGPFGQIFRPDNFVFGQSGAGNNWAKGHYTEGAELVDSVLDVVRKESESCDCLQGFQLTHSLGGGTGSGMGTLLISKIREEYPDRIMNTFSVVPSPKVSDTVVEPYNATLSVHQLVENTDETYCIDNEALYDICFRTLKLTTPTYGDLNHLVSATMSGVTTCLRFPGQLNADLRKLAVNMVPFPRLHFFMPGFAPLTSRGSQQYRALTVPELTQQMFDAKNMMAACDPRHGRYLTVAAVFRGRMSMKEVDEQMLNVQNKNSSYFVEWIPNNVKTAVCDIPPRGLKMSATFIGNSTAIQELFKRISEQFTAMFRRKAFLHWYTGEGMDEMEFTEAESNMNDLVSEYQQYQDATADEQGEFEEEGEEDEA
T1 sequence (P02550 whole entry): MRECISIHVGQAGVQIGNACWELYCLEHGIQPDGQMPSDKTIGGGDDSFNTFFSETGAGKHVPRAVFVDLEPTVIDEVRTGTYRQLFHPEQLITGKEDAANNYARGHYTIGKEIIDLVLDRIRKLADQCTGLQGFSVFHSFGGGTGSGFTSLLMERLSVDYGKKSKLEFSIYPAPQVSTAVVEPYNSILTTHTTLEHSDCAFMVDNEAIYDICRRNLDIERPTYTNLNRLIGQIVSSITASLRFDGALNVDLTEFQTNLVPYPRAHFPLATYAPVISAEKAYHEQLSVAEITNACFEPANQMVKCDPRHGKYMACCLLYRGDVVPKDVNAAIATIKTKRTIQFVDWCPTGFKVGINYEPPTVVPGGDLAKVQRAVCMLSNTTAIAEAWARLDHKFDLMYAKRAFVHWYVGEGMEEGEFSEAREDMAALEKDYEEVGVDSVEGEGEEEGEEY

`COc1cc(C(=O)/C=C/c2cn(S(=O)(=O)c3ccccc3)c3ccccc23)cc(OC)c1OC` [Compound 29e, (E)-3–(1-(Phenylsulfonyl)-1H-indol-3-yl)-1–(3,4,5-trimethoxyphenyl)prop-2-en-1-one]: the microsomal CLint at 0.5 µM in data set [1] is 77 µL/min/mg. Moreover, the half-life at 0.5 µM in data set [1] (37 °C, read-out: Degradation half-life Mouse) was found to be 1 h. Also, in data set [2], the “Effect on tubulin binding of [3H]colchicine” value was “efficiently bound to the [^3H]colchicine binding domain of tubulin”. The IC50 in the data set with CCRF-CEM came out at 840 ± 80 nM; in data set [3] (Danio rerio), 3600 nM; in data set [3], 3400 ± 300 nM; in the data set on MV4-11 it was 250 ± 20 nM; in the data set on HuT 78, 260 ± 110 nM. Further, the “Formation of intersegmental vessels (ISVs) in zebrafish embryos” value in data set [3] (2.0 µM) is reported as “efficiently blocked the formation of intersegmental vessels”. Also, the “Number and length of ISVs in zebrafish embryos” value in data set [3] (6.0 µM) is “the number and length of ISVs completely decreased”. Further, the solubility at 30 min in data set [4] (0.01 M HCl, pH 2, simulated gastric fluid, 0.01 M HCl, read-out: Solubility pH 2.0) was 25 to 50 µg/mL (≈ 52.4 to 105 µM); in data set [4] (phosphate buffer, pH 6.5, aqueous buffer, phosphate buffer, read-out: Solubility pH 6.5), not above 150 µg/mL. In addition, the “Expression of caspase-3, caspase-9 and PARP” value in the data set with K562 cells is “decreased efficiently”. In addition, in the data set on K562 cells, the “Expression of cleaved caspase-3 and PARP” value was “up-regulation of cleaved caspase-3 and PARP”.

The microsomal CLint is a measure of how fast metabolising enzymes remove a compound, apart from limits set by blood flow. A word on the half-life: it is how long it takes for the measured level to halve. For orientation: IC50 means the concentration needed to halve the response being measured. The term solubility denotes the dissolved amount per volume that the medium holds.
